The subject of series [1] is Rattus norvegicus. In words: Antidiabetic activity against Zucker diabetic fatty rat assessed as blood glucose level at 3 mg/kg (reference value: 124 mg/dL). The format is functional.
Series [2] relates to Rattus norvegicus. Put plainly: Reduction in Zucker diabetic fatty rat body weight gain at 3 mg/kg/day measured after 6 weeks (reference value: 103 g). The format is functional.
The subject of series [3] is Rattus norvegicus. Put plainly: Reduction in Zucker diabetic fatty rat body weight gain at 3 mg/kg/day measured after 3 weeks. The format is functional, organism-based.
Series [4] has as its system Rattus norvegicus. Put plainly: Antidiabetic activity against Zucker diabetic fatty rat assessed as blood glucose level at 3 mg/kg after 30 mins (reference value: 270 mg/dL). Format: functional.
Series [5] in a line: Cytotoxicity against human HEK293 cells assessed as cell viability at 10 uM measured after 48 hrs by MTS assay relative to vehicle control. Conditions: read-out: Activity. Format: cell-based. On the technique in general: Tetrazolium dyes change colour on reduction, which living cells bring about.
The subject of series [6] is Rattus norvegicus. In words: Antidiabetic activity against Zucker diabetic fatty rat assessed as blood glucose level at 3 mg/kg measured after 2 hrs of glucose intake by oral glucose tolerance test (reference value: 185 mg/dL). The format is functional.
Series [7] relates to Rattus norvegicus. In words: Antimetabolic syndrome activity in Zucker […] rat assessed as inhibition of fatty liver disease in measured as liver mass at 3 mg/kg (reference value: 8.6 g). Format: functional.
The target of series [8] is T1, Peroxisome proliferator-activated receptor delta (Homo sapiens, UniProt Q03181).
T1 sequence (Q03181 whole entry): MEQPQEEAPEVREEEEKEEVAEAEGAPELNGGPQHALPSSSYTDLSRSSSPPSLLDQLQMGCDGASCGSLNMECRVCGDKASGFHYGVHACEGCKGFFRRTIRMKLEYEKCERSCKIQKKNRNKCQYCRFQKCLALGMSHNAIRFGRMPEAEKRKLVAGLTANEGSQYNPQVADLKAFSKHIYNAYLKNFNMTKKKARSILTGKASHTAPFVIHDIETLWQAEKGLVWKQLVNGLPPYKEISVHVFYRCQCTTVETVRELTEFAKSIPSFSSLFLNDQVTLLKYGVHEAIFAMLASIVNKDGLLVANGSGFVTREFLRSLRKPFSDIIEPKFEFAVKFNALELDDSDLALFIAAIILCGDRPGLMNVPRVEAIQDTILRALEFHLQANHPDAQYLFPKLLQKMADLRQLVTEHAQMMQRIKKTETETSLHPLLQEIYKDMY
In words: Agonist activity at human PPARdelta expressed in HEK293 cells cotransfected with PPREx4-TK-luc assessed as activation of luciferase activity measured after 48 hrs by transactivation assay. Format: cell-based.

A short description of series [9]: Cytotoxicity against human HEK293 cells assessed as cell viability at 100 uM measured after 48 hrs by MTS assay relative to vehicle control. The format is cell-based. Conditions: read-out: Activity.
Series [10] concerns the target T2, Peroxisome proliferator-activated receptor alpha (Homo sapiens, UniProt Q07869).
T2 sequence (Q07869 whole entry): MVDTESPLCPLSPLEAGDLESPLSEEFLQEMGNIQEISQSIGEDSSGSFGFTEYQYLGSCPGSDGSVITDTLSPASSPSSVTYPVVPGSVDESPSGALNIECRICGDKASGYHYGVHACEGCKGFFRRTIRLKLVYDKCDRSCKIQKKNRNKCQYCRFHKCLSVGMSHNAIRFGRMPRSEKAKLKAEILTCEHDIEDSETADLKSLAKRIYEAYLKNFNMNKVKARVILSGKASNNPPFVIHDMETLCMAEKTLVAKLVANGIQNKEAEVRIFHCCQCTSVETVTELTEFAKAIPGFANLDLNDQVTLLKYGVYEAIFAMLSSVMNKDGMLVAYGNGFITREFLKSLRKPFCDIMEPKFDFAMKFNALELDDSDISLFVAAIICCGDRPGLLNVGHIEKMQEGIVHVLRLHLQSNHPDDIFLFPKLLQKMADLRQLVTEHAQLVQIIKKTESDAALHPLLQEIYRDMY
Put plainly: Agonist activity at human PPARalpha expressed in HEK293 cells cotransfected with PPREx4-TK-luc assessed as activation of luciferase activity measured after 48 hrs by transactivation assay. The format is cell-based.

In series [11] the test system is Rattus norvegicus. Put plainly: Antimetabolic syndrome activity in Zucker diabetic fatty rat assessed as inhibition of fatty liver disease in measured as liver mass at 3 mg/kg (reference value: 23.9 g). Format: functional.
Series [12] concerns the target T3, Peroxisome proliferator-activated receptor gamma (Homo sapiens, UniProt P37231).
T3 sequence (P37231 whole entry): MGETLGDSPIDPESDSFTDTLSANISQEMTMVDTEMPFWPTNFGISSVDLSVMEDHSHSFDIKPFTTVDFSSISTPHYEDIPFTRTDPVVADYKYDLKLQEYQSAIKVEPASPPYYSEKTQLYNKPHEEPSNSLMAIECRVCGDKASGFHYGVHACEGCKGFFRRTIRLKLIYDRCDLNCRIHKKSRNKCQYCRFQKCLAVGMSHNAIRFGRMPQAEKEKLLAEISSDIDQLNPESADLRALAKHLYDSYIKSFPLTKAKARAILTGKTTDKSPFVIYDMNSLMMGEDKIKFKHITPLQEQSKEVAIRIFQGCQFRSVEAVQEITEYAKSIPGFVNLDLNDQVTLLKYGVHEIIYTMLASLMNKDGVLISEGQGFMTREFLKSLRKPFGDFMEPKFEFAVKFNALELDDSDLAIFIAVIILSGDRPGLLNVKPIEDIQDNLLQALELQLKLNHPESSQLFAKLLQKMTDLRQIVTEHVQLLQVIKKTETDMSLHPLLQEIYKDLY
In words: Agonist activity at human PPARgamma expressed in HEK293 cells cotransfected with PPREx4-TK-luc assessed as activation of luciferase activity measured after 48 hrs by transactivation assay. The format is cell-based.

The structures appear in SMILES notation. The source made the active and inactive calls. The rule behind the calls is not given here. Bounds are passed on as bounds.

On to `COc1cccc(-c2coc3cc(O)ccc3c2=O)c1`, for which the Activity in the series on Rattus norvegicus [1] was 113 mg/dL; with Rattus norvegicus [2] it was 94 g; in the series on Rattus norvegicus [4], 247 mg/dL; in the series with Rattus norvegicus [6], 154 mg/dL; with Rattus norvegicus [7], 8.3 g; with Rattus norvegicus [11], 19.7 g. Besides, in the series on Rattus norvegicus [3], the outcome was Active. Further, in [5], the viability at 48 h, 10 µM was greater than 90%. Also, the EC50 in series [8] came out at 12.4 µM; in [10], 33.1 µM. Further, the viability at 48 h, 100 µM in [9] was determined as 74%.

Consider `CC(C)(Oc1ccc(CCNC(=O)c2ccc(Cl)cc2)cc1)C(=O)O` [BEZAFIBRATE], for which the EC50 in series [12] stood at 70.4 µM. Also, in series [5], the viability at 48 h, 10 µM worked out at 76%. In series [9], the viability at 48 h, 100 µM is 73.7%.

In the case of `O=c1c(-c2ccc(F)cc2)coc2cc(O)ccc12`, in [5], the viability at 48 h, 10 µM was 78%. The EC50 worked out at 24.4 µM in [8] and 23.1 µM in series [10].

`COc1cc(OC)cc(-c2coc3cc(O)ccc3c2=O)c1`: in series [5], the viability at 48 h, 10 µM was 80%. Also, the EC50 in [8] worked out at 17.2 µM.

In the case of `O=c1c(-c2ccc3c(c2)OCO3)coc2cc(O)ccc12` [PSEUDOBAPTOGENIN], the viability at 48 h, 10 µM in [5] was greater than 90%. The EC50 in series [8] was 22.3 µM.

By EC50 is commonly meant the concentration that produces a half-maximal response.
